Results published in patent US20240158446A1, “CYCLIC COMPOUND HAVING SELECTIVE INHIBITORY ACTION ON KRAS OVER HRAS AND NRAS” (CHUGAI SEIYAKU KABUSHIKI KAISHA, priority 2021, published 2024).
Like-named read-outs stand apart in the source and are kept apart here. Where a SMILES comes first, the peptide text is derived from it. Bridges are numbered along the chain shown (N, C = ends). [ ]: non-standard residue; d: D form. The star is where a group is joined. hPhe(3-Cl-4-CF3) = N[C@@H](CCc1ccc(C(F)(F)F)c(Cl)c1)C(=O)O; NPrPhe(4-CF3) = CCCN[C@@H](Cc1ccc(C(F)(F)F)cc1)C(=O)O; NPrPhe(4-Me) = CCCN[C@@H](Cc1ccc(C)cc1)C(=O)O; NMeGly(cPent) = CN[C@H](C(=O)O)C1CCCC1; Hyp = O=C(O)[C@@H]1C[C@@H](O)CN1; NMeD = CN[C@@H](CC(=O)O)C(=O)O; NMeL = CN[C@@H](CC(C)C)C(=O)O; Morpholide = C1CN(*)CCO1; Ac5c = NC1(C(=O)O)CCCC1; Aze = O=C(O)[C@@H]1CCN1; Ethyl(2,2-F2) = FC(F)C*; NEtG = CCNCC(=O)O; Sar = CNCC(=O)O

Key:
[1] = biological target: GDP-bound KRAS wild-type protein (Homo sapiens, UniProt P01116); assay: Binding to KRAS by surface plasmon resonance (SPR), Single Cycle Kinetics; conditions: GDP-bound KRAS wild-type protein, read-out: KRAS KD
Sequence of GDP-bound KRAS wild-type protein (P01116 whole entry): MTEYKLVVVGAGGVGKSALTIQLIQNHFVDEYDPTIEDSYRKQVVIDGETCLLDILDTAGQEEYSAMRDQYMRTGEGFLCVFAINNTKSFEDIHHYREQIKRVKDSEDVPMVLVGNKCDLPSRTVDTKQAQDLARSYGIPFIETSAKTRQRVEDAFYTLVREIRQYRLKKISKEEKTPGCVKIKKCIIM

[2] = biological target: GDP-bound NRAS wild-type protein (Homo sapiens, UniProt P01111); assay: Binding to NRAS by surface plasmon resonance (SPR), Single Cycle Kinetics
Sequence of GDP-bound NRAS wild-type protein (P01111 whole entry): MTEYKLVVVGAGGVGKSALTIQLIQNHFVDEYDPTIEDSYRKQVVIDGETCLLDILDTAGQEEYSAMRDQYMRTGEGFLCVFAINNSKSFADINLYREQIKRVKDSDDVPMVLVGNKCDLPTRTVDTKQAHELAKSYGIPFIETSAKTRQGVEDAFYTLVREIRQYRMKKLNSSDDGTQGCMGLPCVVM

[3] = biological target: GDP-bound HRAS wild-type protein (Homo sapiens, UniProt P01112); assay: Binding to HRAS by surface plasmon resonance (SPR), Single Cycle Kinetics
Sequence of GDP-bound HRAS wild-type protein (P01112 whole entry): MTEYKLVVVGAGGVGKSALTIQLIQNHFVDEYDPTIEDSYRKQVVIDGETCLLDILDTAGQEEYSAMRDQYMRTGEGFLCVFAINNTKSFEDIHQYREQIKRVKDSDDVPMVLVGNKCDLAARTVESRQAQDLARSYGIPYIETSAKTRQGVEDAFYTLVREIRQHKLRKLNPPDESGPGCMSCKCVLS

[4] = SPR Single Cycle Kinetics, 1:1 binding model
[5] = SPR, GDP-bound NRAS wild-type protein vs GDP-bound KRAS wild-type protein
[6] = SPR, GDP-bound HRAS wild-type protein vs GDP-bound KRAS wild-type protein
[7] = SPR, Single Cycle Kinetics, 1:1 binding model
[8] = SPR, GDP-bound NRAS wild-type protein vs GDP-bound KRAS wild-type protein, KD ratio class
[9] = SPR, GDP-bound HRAS wild-type protein vs GDP-bound KRAS wild-type protein, KD ratio class

Row | Compound | Kd [1, 4] | Kd ([1]; SPR, Single Cycle Kinetics) | NRAS/KRAS (ratio of KD value for NRAS to KD value for KRAS) [2, 5] | HRAS/KRAS (ratio of KD value for HRAS to KD value for KRAS) [3, 6] | further results
1 | CCO[C@@H]1C[C@H]2C(=O)NC3(CCC3)C(=O)N(C)[C@@H](C3CCCC3)C(=O)N(C)[C@H](C(=O)N3CCOCC3)CC(=O)N(C)[C@@H](C)C(=O)N[C@@H]([C@@H](C)CC)C(=O)N(C)CC(=O)N(C)[C@H]3CCCCCN(C3=O)[C@@H](Cc3ccc(C(F)(F)F)cc3)C(=O)N(C)CC(=O)N[C@@H](CCc3cc(F)c(C(F)(F)F)c(F)c3)C(=O)N2C1 [PP0474] | 0.63 nM |  |  |  | NRAS/KRAS (ratio of KD value with respect to NRAS to KD value with respect to KRAS) [2, 5]: B (a compound having 3 or more and less than 10 is denoted as B); HRAS/KRAS (ratio of KD value with respect to HRAS to KD value with respect to KRAS) [3, 6]: B (a compound having 3 or more and less than 10 is denoted as B)
2 | CCO[C@@H]1C[C@H]2C(=O)NC3(CCC3)C(=O)N(C)[C@@H](C3CCCC3)C(=O)N(C)[C@H](C(=O)N(C)CC)CC(=O)N(C)[C@@H](C)C(=O)N[C@@H]([C@@H](C)CC)C(=O)N(C)CC(=O)N(C)[C@H]3C/C=C\CCN(C3=O)[C@@H](Cc3ccc(C(F)(F)F)cc3)C(=O)N(C)CC(=O)N[C@@H](CCc3cc(F)c(C(F)(F)F)c(F)c3)C(=O)N2C1 [PP1302, (2S,8S,12R,14S,20S,23S,27S,30S,36S,38Z)-20-cyclopentyl-8-[2-[3,5-difluoro-4-(trifluoromethyl)phenyl]ethyl]-12-ethoxy-N-ethyl-N,4,19,22,26,27,32,35-octamethyl-30-[(1S)-1-methylpropyl]-3,6,9,15,18,21,25,28,31,34,42-undecaoxo-2-[[4-(trifluoromethyl)phenyl]methyl]spiro[1,4,7,10,16,19,22,26,29,32,35-undecazatricyclo[34.5.1.0^10,14]dotetracont-38-ene-17,1′-cyclobutane]-23-carboxamide] |  |  |  |  | Kd [1, 7]: 0.057 nM; NRAS/KRAS (ratio of KD value for NRAS to KD value for KRAS) [2, 8]: A (a compound having 10 or more and less than 20 is denoted as A); HRAS/KRAS (ratio of KD value for HRAS to KD value for KRAS) [3, 9]: A (a compound having 10 or more and less than 20 is denoted as A)
3 | CCO[C@@H]1C[C@H]2C(=O)NC3(CCC3)C(=O)N(C)[C@@H](C3CCCC3)C(=O)N(C)[C@H](C(=O)N(C)C)CC(=O)N(C)[C@@H](CC(F)F)C(=O)N[C@@H]([C@@H](C)CC)C(=O)N(C)CC(=O)N(C)[C@H]3C/C=C\CCN(C3=O)[C@@H](Cc3ccc(C(F)(F)F)cc3)C(=O)N(C)CC(=O)N[C@@H](CCc3cc(F)c(C(F)(F)F)c(F)c3)C(=O)N2C1 [PP1120, (2S,8S,12R,14S,20S,23S,27S,30S,36S,38Z)-20-cyclopentyl-27-(2,2-difluoroethyl)-8-[2-[3,5-difluoro-4-(trifluoromethyl)phenyl]ethyl]-12-ethoxy-N,N,4,19,22,26,32,35-octamethyl-30-[(1S)-1-methylpropyl]-3,6,9,15,18,21,25,28,31,34,42-undecaoxo-2-[[4-(trifluoromethyl)phenyl]methyl]spiro[1,4,7,10,16,19,22,26,29,32,35-undecazatricyclo[34.5.1.0^10,14]dotetracont-38-ene-17,1′-cyclobutane]-23-carboxamide] |  | 0.042 nM | A (a compound having 10 or more and less than 20 is denoted as A) | A (a compound having 10 or more and less than 20 is denoted as A) | 
4 | CCCN1C(=O)CN(C)C(=O)CN(C)C(=O)[C@H]([C@@H](C)CC)NC(=O)[C@H](CC(C)C)N(C)C(=O)C[C@@H](C(=O)N2CCOCC2)N(C)C(=O)[C@H](C2CCCC2)N(C)C(=O)C2(CCCC2)NC(=O)[C@@H]2C[C@@H](OCC(F)F)CN2C(=O)[C@H](CCc2ccc(C(F)(F)F)c(Cl)c2)NC(=O)CN(C)C(=O)[C@@H]1Cc1ccc(C(F)(F)F)cc1 [PP0246] ([NMeL]I[Sar][Sar][NPrPhe(4-CF3)][Sar][hPhe(3-Cl-4-CF3)][Hyp](Ethyl(2,2-F2))[Ac5c][NMeGly(cPent)][NMeD]-Morpholide; lactam N-11) | 0.054 nM |  | B (a compound having 3 or more and less than 10 is denoted as B) | C (A compound having a KD ratio of 0.1 or more and less than 3 is denoted as C) | 
5 | CCO[C@@H]1C[C@H]2C(=O)NC3(CC(C)(C)C3)C(=O)N(C)[C@@H](C3CCCC3)C(=O)N3CCC[C@@H]3CC(=O)N(C)[C@@H](CC)C(=O)N[C@@H]([C@@H](C)CC)C(=O)N(C)CC(=O)N(C)[C@H]3C/C=C\CCN(C3=O)[C@@H](Cc3ccc(C(F)(F)F)cc3)C(=O)N(C)CC(=O)N[C@@H](CCc3cc(F)c(C(F)(F)F)c(F)c3)C(=O)N2C1 [PP1606] |  |  |  |  | Kd [1, 7]: 0.37 nM; NRAS/KRAS (ratio of KD value for NRAS to KD value for KRAS) [2, 8]: B (a compound having 3 or more and less than 10 is denoted as B); HRAS/KRAS (ratio of KD value for HRAS to KD value for KRAS) [3, 9]: B (a compound having 3 or more and less than 10 is denoted as B)
6 | CCC[C@H]1C(=O)N[C@@H]([C@@H](C)CC)C(=O)N(C)CC(=O)N(C)[C@H]2C/C=C\CCN(C2=O)[C@@H](Cc2ccc(C(F)(F)F)cc2)C(=O)N(C)CC(=O)N[C@@H](CCc2ccc(C(F)(F)F)c(OC)c2)C(=O)N2CCCCC[C@H]2C(=O)NC2(CC(C)(C)C2)C(=O)N(C)[C@@H](C(CC)CC)C(=O)N(C)[C@H](C(=O)N(C)C)CC(=O)N1C [PP2968] | 0.55 nM |  |  |  | NRAS/KRAS (ratio of KD value with respect to GDP-bound NRAS wild-type protein to KD value with respect to KRAS) ([2]; SPR KD ratio NRAS/KRAS, class symbols): AA (a compound having 20 or more is denoted as AA); HRAS/KRAS (ratio of KD value with respect to GDP-bound HRAS wild-type protein to KD value with respect to KRAS) ([3]; SPR KD ratio HRAS/KRAS, class symbols): A (a compound having 10 or more and less than 20 is denoted as A)
7 | CCCN1C(=O)[C@@H]2CCN2C(=O)CN(C)C(=O)[C@H]([C@@H](C)CC)NC(=O)[C@H](CC(C)C)N(C)C(=O)C[C@@H](C(=O)N(C)C)NC(=O)[C@H](C2CCCC2)N(C)C(=O)C2(CCCC2)NC(=O)[C@@H]2C[C@@H](OCC)CN2C(=O)[C@H](CCc2ccc(C(F)(F)F)c(Cl)c2)NC(=O)CN(C)C(=O)[C@@H]1Cc1ccc(C(F)(F)F)cc1 [PP0389] ([NMeL]I[Sar][Aze][NPrPhe(4-CF3)][Sar][hPhe(3-Cl-4-CF3)][Hyp](Et)[Ac5c][NMeGly(cPent)]D-NMe2; lactam N-11) | 0.16 nM |  | C (A compound having a KD ratio of 0.1 or more and less than 3 is denoted as C) | B (a compound having 3 or more and less than 10 is denoted as B) | 
8 | CCO[C@@H]1C[C@H]2C(=O)NC3(CC(C)(C)C3)C(=O)N(C)[C@@H](C(CC)CC)C(=O)N(C)[C@H](C(=O)N3CCCC3)CC(=O)N(C)[C@@H](C)C(=O)N[C@@H]([C@@H](C)CC)C(=O)N(C)CC(=O)N(C)[C@H]3C/C=C\CCN(C3=O)[C@@H](Cc3ccc(C)cc3)C(=O)N(C)CC(=O)N[C@@H](CCc3ccc(C(F)(F)F)c(OC)c3)C(=O)N2C1 [PP2169] |  | 0.63 nM | AA (a compound having 20 or more is denoted as AA) | A (a compound having 10 or more and less than 20 is denoted as A) | 
9 | CCCN1C(=O)CN(C)C(=O)CN(C)C(=O)[C@H]([C@@H](C)CC)NC(=O)[C@H](CC(C)C)N(C)C(=O)C[C@@H](C(=O)N2CCOCC2)N(C)C(=O)[C@H](C2CCCC2)N(C)C(=O)C2(CCCC2)NC(=O)[C@@H]2CCCN2C(=O)[C@H](CCc2ccc(C(F)(F)F)c(Cl)c2)NC(=O)CN(CC)C(=O)[C@@H]1Cc1ccc(C)cc1 [PP0066] ([NMeL]I[Sar][Sar][NPrPhe(4-Me)][NEtG][hPhe(3-Cl-4-CF3)]P[Ac5c][NMeGly(cPent)][NMeD]-Morpholide; lactam N-11) | 1.4 nM |  | B (a compound having 3 or more and less than 10 is denoted as B) | C (A compound having a KD ratio of 0.1 or more and less than 3 is denoted as C) | 
10 | CCCN(C)C(=O)[C@@H]1CC(=O)N(C)[C@@H](C2CCC2)C(=O)N[C@@H]([C@@H](C)CC)C(=O)N(C)CC(=O)N(C)[C@H]2C/C=C\CCN(C2=O)[C@@H](Cc2ccc(C(F)(F)F)cc2)C(=O)N(C)CC(=O)N[C@@H](CCc2cc(F)c(C(F)(F)F)c(F)c2)C(=O)N2C[C@@H](C)C[C@H]2C(=O)NC2(CCC2)C(=O)N(C)[C@@H](C2CCCC2)C(=O)N1C [PP2083] |  | 0.22 nM | A (a compound having 10 or more and less than 20 is denoted as A) | B (a compound having 3 or more and less than 10 is denoted as B) | 
11 | CC[C@H](C)[C@@H]1NC(=O)[C@H](CC(C)C)N(C)C(=O)C[C@@H](C(=O)N2CCOCC2)N(C)C(=O)[C@H](C2CCCC2)N(C)C(=O)C2(CCC2)NC(=O)[C@@H]2[C@@H](OC)CCN2C(=O)[C@H](CCc2cc(F)c(C(F)(F)F)c(F)c2)NC(=O)CN(C)C(=O)[C@H](Cc2ccc(C(F)(F)F)cc2)N2CCCC[C@@H](C2=O)N(C)C(=O)CN(C)C1=O [PP1075] |  | 0.066 nM | B (a compound having 3 or more and less than 10 is denoted as B) | B (a compound having 3 or more and less than 10 is denoted as B) | 
